Data taken from patent US5444042A, “Method of treatment of neurodegeneration with calpain inhibitors” (Cortex Pharmaceuticals, priority 1994, dated 1995).
pIC50, pKi: −log10 of the molar value.

Assays:
Format in all cases: biochemical
[1] = molecular target: T1, Calpain I from human erythrocytes (Homo sapiens, UniProt P07384); assay: Calpain I Ki (Table 1B(i)); conditions: Suc-Leu-Tyr-amidomethylcoumarin, HEPES pH 7.2
T1 construct: Calpain I from human erythrocytes and calpain II from rabbit were assayed using Suc-Leu-Tyr-AMC; from tissue; host or cells: human erythrocytes
T1 sequence (P07384 1-714): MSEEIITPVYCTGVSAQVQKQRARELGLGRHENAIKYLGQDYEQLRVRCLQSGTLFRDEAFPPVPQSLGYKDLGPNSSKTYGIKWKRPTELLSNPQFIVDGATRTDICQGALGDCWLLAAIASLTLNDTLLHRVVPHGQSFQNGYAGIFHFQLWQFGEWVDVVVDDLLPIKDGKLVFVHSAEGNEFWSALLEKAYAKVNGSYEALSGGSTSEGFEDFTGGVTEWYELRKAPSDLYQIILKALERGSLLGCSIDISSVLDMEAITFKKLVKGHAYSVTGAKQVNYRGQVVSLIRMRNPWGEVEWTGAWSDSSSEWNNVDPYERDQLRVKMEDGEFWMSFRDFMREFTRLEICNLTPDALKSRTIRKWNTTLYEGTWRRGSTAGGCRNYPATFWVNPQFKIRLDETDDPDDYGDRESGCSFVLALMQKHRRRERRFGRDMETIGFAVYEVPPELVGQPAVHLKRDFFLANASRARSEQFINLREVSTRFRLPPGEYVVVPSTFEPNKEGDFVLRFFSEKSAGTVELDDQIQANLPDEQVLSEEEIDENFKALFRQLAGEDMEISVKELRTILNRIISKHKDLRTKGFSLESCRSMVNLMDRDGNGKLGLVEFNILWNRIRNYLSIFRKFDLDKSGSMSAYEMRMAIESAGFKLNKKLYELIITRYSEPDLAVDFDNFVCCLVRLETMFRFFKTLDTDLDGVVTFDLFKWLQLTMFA
T1 sequence (P04632 1-268 partner): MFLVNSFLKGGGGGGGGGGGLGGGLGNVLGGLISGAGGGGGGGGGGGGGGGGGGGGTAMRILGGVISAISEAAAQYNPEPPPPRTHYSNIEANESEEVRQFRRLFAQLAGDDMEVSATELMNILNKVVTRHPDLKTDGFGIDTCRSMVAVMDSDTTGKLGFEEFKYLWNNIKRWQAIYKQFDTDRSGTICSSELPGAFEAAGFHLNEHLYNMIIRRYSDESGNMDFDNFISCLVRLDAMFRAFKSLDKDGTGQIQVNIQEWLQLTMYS
Experimental: The Peptide Keto-Compounds are reversible inhibitors of Calpains and other thiol proteases. […] Cathepsin B from bovine spleen was assayed using Z-Lys-4-nitrophenylphosphate as substrate.
The Ki value for the inhibition of Calpains and cathepsin B by several Peptide Keto-Compounds are shown in μM (micromolar). The values for leupeptin, which is commercially available from Calbiochem of La Jolla, Calif., are shown for comparison.

[2] = molecular target: T2, Calpain I (Homo sapiens, UniProt P07384); assay: Calpain I 14C-methylated casein proteolysis (Table 1A)
T2 sequence (P07384 1-714): T1 sequence (P07384 1-714)
T2 sequence (P04632 1-268 partner): T1 sequence (P04632 1-268 partner)

[3] = molecular target: T3, Calpain II (Homo sapiens, UniProt P17655); assay: Calpain II 14C-methylated casein proteolysis (Table 1A)
T3 construct: from tissue; purified by a cited method
T3 sequence (P17655 1-700): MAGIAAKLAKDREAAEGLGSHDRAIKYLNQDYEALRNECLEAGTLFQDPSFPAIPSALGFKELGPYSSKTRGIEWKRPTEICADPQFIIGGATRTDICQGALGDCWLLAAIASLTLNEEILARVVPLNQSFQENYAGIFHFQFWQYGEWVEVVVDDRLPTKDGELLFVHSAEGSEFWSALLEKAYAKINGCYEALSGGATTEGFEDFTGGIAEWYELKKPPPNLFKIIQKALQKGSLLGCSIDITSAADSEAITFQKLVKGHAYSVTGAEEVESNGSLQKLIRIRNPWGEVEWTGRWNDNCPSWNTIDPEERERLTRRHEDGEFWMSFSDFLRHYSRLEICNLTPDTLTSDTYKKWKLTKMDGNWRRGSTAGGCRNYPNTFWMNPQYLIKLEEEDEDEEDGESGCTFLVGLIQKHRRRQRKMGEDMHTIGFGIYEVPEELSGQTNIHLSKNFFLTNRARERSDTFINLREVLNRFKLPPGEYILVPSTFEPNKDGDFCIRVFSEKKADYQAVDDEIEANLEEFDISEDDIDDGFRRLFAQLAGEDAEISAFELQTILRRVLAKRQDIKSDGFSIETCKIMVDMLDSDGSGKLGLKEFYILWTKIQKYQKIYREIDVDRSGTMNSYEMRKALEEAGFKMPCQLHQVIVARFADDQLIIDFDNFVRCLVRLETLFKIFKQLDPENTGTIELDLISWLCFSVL
T3 sequence (P04632 1-268 partner): T1 sequence (P04632 1-268 partner)
Experimental: The isocoumarins are irreversible inhibitors of Calpain. We obtained IC50 values for a variety of these Calpain Inhibitors as a kinetic analysis of these compounds.
Calpains I and II were purified by the method of (Yoshimura, et al. 1983). (Kitahara 1984) provides an alternative purification scheme. Calpain II may alternatively be purchased from Sigma Chemical Co. as "Calcium Activated Neutral Protease." In this assay, purified Calpain was incubated with ^14 C-methylated casein in the presence of various Heterocyclic Compounds and the amount of acid-soluble radioactivity released by the action of Calpain was measured.

Compound | pKi [1] | pIC50 [2] | pIC50 [3]
CCOC(=O)C(=O)C(CC)NC(=O)[C@H](C)NC(=O)[C@H](C)NC(=O)OCc1ccccc1 (mixture of isomers) [Z-Ala-Ala-DL-Abu-COOEt, Z-Ala-Ala-DL-Abu-CO2 Et] | 4.30 | – | –
CCOC(=O)C(=O)[C@H](CC)NC(=O)[C@H](CC(C)C)NC(=O)OCc1ccccc1 (racemic) [Z-Leu-Abu-COOEt, Z-Leu-DL-Abu-COOEt] | 7.40 | – | –
N=C(N)SCCCOc1oc(=O)c2ccccc2c1Cl [CiTprOIC, 4-chloro-3-(3-isothiureidopropoxy)isocoumarin] | – | 4.00 | 4.15
CC(=O)N[C@@H](CC(C)C)C(=O)N[C@@H](CC(C)C)C(=O)N[C@H](C=O)CCCNC(=N)N [Leupeptin, Ac-Leu-Leu-Arg-H, reference compound] | 6.49 | – | –
N=C(N)SCCCOc1oc(=O)c2cc(N)ccc2c1Cl [NH2 -CiTPrOIC (ACITIC), 7-amino-4-chloro-3-(3-isothiureidopropoxy)isocoumarin] | – | 5.00 | 3.92
